Measurements: publication PMC6199744, “Development of Chemical Proteomics for the Folateome and Analysis of the Kinetoplastid Folateome” (ACS Infectious Diseases, 2018)
Like-named read-outs stand apart in the source and are kept apart here.

What was measured:
Assay type in all cases: binding
[1] = target: T1, HeLa cell extract proteins (Homo sapiens, UniProt O00148)
T1 construct: endogenous in cells; host or cells: HeLa cell extract

[2] = target: T2, HeLa cell extract proteins (Homo sapiens, UniProt P07686)
T2 construct: endogenous in cells; host or cells: HeLa cell extract
T2 sequence (P07686 122-556): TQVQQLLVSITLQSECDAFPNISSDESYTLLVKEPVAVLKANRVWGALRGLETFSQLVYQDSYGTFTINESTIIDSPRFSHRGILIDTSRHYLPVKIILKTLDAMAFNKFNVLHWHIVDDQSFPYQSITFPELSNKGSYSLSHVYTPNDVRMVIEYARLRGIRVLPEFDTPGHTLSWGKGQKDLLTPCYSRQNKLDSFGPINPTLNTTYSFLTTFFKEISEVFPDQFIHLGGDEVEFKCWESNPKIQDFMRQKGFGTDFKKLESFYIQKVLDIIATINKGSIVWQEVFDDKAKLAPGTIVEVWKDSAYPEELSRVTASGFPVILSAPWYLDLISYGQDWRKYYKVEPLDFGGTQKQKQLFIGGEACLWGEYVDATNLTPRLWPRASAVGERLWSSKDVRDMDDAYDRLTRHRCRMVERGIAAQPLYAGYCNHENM

[3] = target: T3, HeLa cell extract proteins (Homo sapiens, UniProt P22695)
T3 construct: endogenous in cells; host or cells: HeLa cell extract
T3 sequence (P22695 15-453): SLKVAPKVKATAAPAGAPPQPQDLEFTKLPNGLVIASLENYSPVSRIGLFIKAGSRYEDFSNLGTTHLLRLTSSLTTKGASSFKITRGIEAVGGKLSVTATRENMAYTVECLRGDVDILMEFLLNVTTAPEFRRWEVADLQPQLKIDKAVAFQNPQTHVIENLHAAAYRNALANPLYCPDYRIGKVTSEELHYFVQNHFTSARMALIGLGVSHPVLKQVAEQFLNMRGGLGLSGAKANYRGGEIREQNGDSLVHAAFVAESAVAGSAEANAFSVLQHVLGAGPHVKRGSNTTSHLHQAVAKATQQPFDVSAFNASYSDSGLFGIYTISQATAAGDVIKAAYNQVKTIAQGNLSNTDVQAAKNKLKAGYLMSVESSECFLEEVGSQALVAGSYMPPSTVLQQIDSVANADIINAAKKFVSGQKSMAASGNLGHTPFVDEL

[4] = target: T4, HeLa cell extract proteins (Homo sapiens, UniProt P52209)
T4 construct: endogenous in cells; host or cells: HeLa cell extract
T4 sequence (P52209 1-483): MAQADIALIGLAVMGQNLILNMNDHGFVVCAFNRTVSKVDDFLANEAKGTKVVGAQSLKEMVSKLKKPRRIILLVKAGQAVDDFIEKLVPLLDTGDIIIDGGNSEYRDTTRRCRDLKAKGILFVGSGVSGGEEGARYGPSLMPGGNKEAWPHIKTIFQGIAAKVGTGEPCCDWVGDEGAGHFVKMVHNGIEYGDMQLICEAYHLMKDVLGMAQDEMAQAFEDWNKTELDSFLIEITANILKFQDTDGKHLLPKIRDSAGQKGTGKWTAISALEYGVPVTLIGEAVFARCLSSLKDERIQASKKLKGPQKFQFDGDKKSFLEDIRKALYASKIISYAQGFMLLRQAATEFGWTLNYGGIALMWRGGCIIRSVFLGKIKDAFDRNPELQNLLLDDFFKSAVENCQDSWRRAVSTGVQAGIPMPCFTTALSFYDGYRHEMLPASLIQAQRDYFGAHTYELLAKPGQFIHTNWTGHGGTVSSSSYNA

[5] = target: T5, HeLa cell extract proteins (Homo sapiens, UniProt P57740)
T5 construct: endogenous in cells; host or cells: HeLa cell extract
T5 sequence (P57740 1-925): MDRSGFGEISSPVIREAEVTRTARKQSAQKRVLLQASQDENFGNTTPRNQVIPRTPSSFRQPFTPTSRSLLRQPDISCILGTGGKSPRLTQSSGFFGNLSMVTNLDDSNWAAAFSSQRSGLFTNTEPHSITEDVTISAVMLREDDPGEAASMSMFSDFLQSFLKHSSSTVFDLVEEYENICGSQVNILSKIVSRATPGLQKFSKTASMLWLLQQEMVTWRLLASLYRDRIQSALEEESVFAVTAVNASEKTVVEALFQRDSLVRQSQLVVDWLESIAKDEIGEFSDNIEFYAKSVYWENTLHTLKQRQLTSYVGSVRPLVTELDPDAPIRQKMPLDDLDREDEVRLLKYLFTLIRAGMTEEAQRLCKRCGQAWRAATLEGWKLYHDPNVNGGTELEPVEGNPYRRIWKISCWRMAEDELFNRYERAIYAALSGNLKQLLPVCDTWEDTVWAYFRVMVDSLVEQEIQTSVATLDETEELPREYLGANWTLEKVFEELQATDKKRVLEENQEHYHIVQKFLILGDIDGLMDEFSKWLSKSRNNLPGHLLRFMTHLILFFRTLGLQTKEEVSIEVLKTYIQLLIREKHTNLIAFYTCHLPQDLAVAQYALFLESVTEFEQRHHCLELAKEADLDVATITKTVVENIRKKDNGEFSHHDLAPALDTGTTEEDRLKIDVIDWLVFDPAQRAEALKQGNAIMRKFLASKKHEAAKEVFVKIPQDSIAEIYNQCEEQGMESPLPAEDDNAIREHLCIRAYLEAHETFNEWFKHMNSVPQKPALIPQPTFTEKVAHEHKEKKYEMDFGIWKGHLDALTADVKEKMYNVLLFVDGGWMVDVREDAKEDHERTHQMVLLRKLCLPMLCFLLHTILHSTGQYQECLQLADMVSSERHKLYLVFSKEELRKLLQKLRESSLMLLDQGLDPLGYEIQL

[6] = HeLa, protein DDX39 (CDNA FLJ55484, HIGHLY SIMILAR TO ATP-DEPENDENT RNA HELICASE DDX39.)
[7] = HeLa, protein PGD (56 KDA PROTEIN.)

T1 sequence (O00148 whole entry): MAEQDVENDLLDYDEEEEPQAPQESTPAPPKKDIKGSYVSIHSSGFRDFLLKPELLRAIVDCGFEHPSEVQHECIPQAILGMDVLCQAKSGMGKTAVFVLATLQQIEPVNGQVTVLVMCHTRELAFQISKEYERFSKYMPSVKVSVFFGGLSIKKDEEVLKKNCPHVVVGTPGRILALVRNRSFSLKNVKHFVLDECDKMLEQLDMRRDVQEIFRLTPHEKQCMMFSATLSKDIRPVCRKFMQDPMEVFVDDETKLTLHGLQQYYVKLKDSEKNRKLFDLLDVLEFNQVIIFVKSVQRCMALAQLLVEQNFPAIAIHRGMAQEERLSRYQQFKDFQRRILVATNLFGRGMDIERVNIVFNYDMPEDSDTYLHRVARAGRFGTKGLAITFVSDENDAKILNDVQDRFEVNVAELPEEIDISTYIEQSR

Compound | fold changes relative to vehicle control ([1]; HeLa, protein DDX39) | fold changes relative to vehicle control ([2]; HeLa, protein HEXB) | fold changes relative to vehicle control ([3]; HeLa, protein UQCRC2) | fold changes relative to vehicle control ([4]; protein PGD, HeLa) | fold changes relative to vehicle control ([5]; HeLa, protein NUP107) | fold changes relative to vehicle control [1, 6] | fold changes relative to vehicle control [4, 7] | fold changes relative to vehicle control [1] | fold changes relative to vehicle control [2] | fold changes relative to vehicle control [3] | fold changes relative to vehicle control [4] | fold changes relative to vehicle control [5]
Nc1nc2c(c(=O)[nH]1)N(C=O)C(CNc1ccc(C(=O)N[C@@H](CCC(=O)O)C(=O)O)cc1)CN2 (some centres unmarked) [LEU, leucovorin] | 1.07 | 0.97 | 0.9 | 0.97 | 1.01 |  |  |  |  |  |  | 
NCCCNc1ccc(C(=O)NC(CCC(=O)O)C(=O)O)cc1 (centres unmarked) [compound 7] | 0.88 | 1.06 | 1.03 | 0.86 | 1.26 |  |  |  |  |  |  | 
CCCCCCOc1cccc(Cc2cnc(N)nc2N)c1 [compound 2] |  | 1.06 | 0.99 |  | 1.03 | 2.4 fold | 2.49 fold |  |  |  |  | 
CCCCCCOc1ccc(Cc2cnc(N)nc2N)cc1 [compound 1] |  | 1.04 | 0.97 |  | 0.98 | 1.22 fold | 1.44 fold |  |  |  |  | 
Nc1nc2cccc(-c3ccccc3)c2n1Cc1ccc(Cl)c(Cl)c1 [compound 3] |  | 0.93 | 1.01 |  | 1.07 | 0.86 fold | 0.86 fold |  |  |  |  | 
NCCOCCOCC(=O)Nc1nc2ncc(CNc3ccc(C(=O)NC(CCC(=O)O)C(=O)O)cc3)nc2c(=O)[nH]1 (centres unmarked) [compound 6] | 1.17 | 1.05 | 0.95 | 1.35 | 1.18 |  |  |  |  |  |  | 
Nc1nc2[nH]cc(CCc3ccc(C(=O)N[C@@H](CCC(=O)O)C(=O)O)cc3)c2c(=O)[nH]1 [PTX, pemetrexed] |  |  |  |  |  |  |  | 0.99 | 1 | 0.93 | 1.17 | 0.98
